Test system: clonic seizures caused by pentylenetetrazole in rats
Assay: Protection against clonic seizures caused by pentylenetetrazole in rats (oral)
Type: in vivo, rat
Conditions: for effectiveness as anxiolytic agents versus closest prior art compound (respective dextrorotatory and racemic forms without 10-methyl): pentylenetetrazole test in rats, compared with Compounds 4 and 5
Procedure: The anti-anxiety properties of the compounds of the present invention have been established in a test which indicates anxiolytic activity by a measure of protection from convulsions resulting from the administration of pentylenetetrazol. Graded dose levels of the dextro and racemic forms of the 1,2,3,11a-tetrahydro-10-methyl-5H-pyrrolo[2,1-c][1,4]benzodiazepin-5,11(10H)-diones are administered orally, in a 2% starch vehicle, to groups of at least 5 rats. At the estimated time of peak effect, the rats are treated intravenously with pentylenetetrazole at a dose of 21 to 23 mg/kg of body weight. This dose is estimated to cause clonic seizures in 99% of unprotected rats. The effective dose of the test compound for protection of 50% of the animals is calculated by the method of J. T. Litchfield and F. Wilcoxon, Journal of Pharmacology and Experimental Therapeutics, 96, 99 (1949). The results are given in the table which follows in comparison with Librium (chlordiazepoxide), Valium (diazepam) and the dextro and racemic forms of 1,2,3,11a-tetrahydro-5H-pyrrolo-[2,1-c] [1,4]benzodiazepin-5,11(10H)-dione (U.S. Pat. No. 3,732,212) all of which were tested in exactly the same manner. It has been reported [R. T. Hill and D. H. Tedeschi, "Animal Testing and Screening Procedures in Evaluating Psychotropic Drugs" in An Introduction to Psychopharmacology, Eds. R. R. Rech and K. E. Moore, Raven Press, New York, pp. 237-288 (1971)] that there is a high degree of correlation between antagonism of pentylenetetrazole seizures in rats and antianxiety effects in higher warm-blooded animals.

Row | Compound | effectiveness as anxiolytic agents versus closest prior art compound (respective dextrorotatory and racemic forms without 10-methyl) | ED50 (Rattus norvegicus, 2% starch vehicle, at least 5 rats per group, pentylenetetrazole 21 to 23 mg/kg intravenously at estimated time of peak effect, Litchfield and Wilcoxon, read-out: Medium Effective Oral Dose ED50, protection against clonic seizures caused by pentylenetetrazole) [mg/kg]
1 | CN1C(=O)[C@@H]2CCCN2C(=O)c2ccccc21 [Compound 2, Dextrorotatory 1,2,3,11a-Tetrahydro-10-methyl-5H-pyrrolo[2,1-c][1,4]benzodiazepin-5,11(10H)-dione] | far more effective | –
2 | CN1C(=O)[C@@H]2CCCN2C(=O)c2cc(F)ccc21 [Dextrorotatory 7-Fluoro-1,2,3,11a-tetrahydro-10-methyl-5H-pyrrolo[2,1-c][1,4]benzodiazepin-5,11(10H)-dione] | far more effective | 4
3 | CN1C(=O)C2CCCN2C(=O)c2ccccc21 (racemic) [Compound 3, Racemic (DL) 1,2,3,11a-Tetrahydro-10-methyl-5H-pyrrolo[2,1-c][1,4]benzodiazepin-5,11(10H)-dione] | far more effective | –

Reference: US3985732A, “1,2,3,11A-Tetrahydro-10-methyl-5H-pyrrolo[2,1-c][1,4]ben zodiazepin-5,11(10H)-diones” (American Cyanamid Company, priority 1975, dated 1976)
